Molecules are shown by their SMILES. Where two headings read alike, the source gives them in different places.

For series [1], the system named is HSP90. Description: concomitant binding to HSP90 and streptavidin in live K562 cells. The class given is cell-based. The note with it: for HSP90-streptavidin binding with K562 cells: live K562 cells; for binding in live K562 cells: 100 μM, 4 h. An excerpt:
Having shown that some of the molecules bind concomitantly to HSP90 and streptavidin, we next investigated whether this can similarly be accomplished in live cells.

A short description of series [2]: [124I]-PU-H71 PET in cancer patients, tumor exposure to PU-H71. The class given is in vivo, human. The settings on record: human blood circulation.
In series [3] the test system is HSP90. Description: 131I-PU-H71 saturation binding in intact cancer cells. The note with it: MDA-MB-468 cells. The class given is cell-based.
Excerpt: The solutions were shaken in an orbital shaker and after 1 hr the cells were isolated and washed with ice cold Tris-buffered saline using a Brandel cell harvester. […] To calculate the percentage of HSP90, cellular HSP90 expression was quantified by using standard curves created of recombinant HSP90 purified from HeLa cells (Stressgen#ADI-SPP-770).

As to `Nc1ncnc2c1nc(Sc1cc3c(cc1I)OCO3)n2CCCNC(=O)CCCCCNC(=O)CCCC[C@@H]1SC[C@@H]2NC(=O)N[C@@H]21` [PU-H71-biotin4], in the series on HSP90 [1], the “HSP90-streptavidin binding with K562 cells” value (shortened to “HSP90-streptavidin binding”) is “No”.

As for `CC(C)N(CCCn1c(Sc2cc3c(cc2I)OCO3)nc2c(N)ncnc21)C(=O)CCCCCNC(=O)CCCCCNC(=O)CCCC[C@@H]1SC[C@@H]2NC(=O)N[C@@H]21` [PU-H71-biotin8], in the series with HSP90 [1], the “binding in live K562 cells” value is given as “able to permeate the cell membrane” and the “HSP90-streptavidin binding” value is recorded as “Yes”.

For `CC(C)NCCCn1c(Sc2cc3c(cc2[124I])OCO3)nc2c(N)ncnc21` [[^124I]-PU-H71], the “blood t1/2, rapid clearance” value in series [2] is on record as “≈ 20 min”. The “tumor uptake from ROI analysis” value (4 h) came out at 0.35±0.07 % ID/g. In addition, the “activity in ROI circumscribing the entire mouse” value (4 h PET) is listed as 40-50 % of the administered activity. Also, for the setting “4 h p.a.”, the “concentration in tumor relative to bone” value came out at 9 fold, the “concentration in tumor relative to brain” value worked out at 40 fold, the “concentration in tumor relative to heart” value was determined as 10 fold and the “concentration in tumor relative to muscle” value is on record as 18 fold. For the same compound, the “concentration in tumor relative to spleen” value (4 h p.a.) is on record as 6 fold. For the setting “24 h”, the “[Atumor] activity concentration in tumor” value is on record as about 0.14±0.05 % ID/g and the “tumor uptake from ROI analysis” value stood at 0.083±0.02 % ID/g. Further, under “48 h”, the “tumor uptake from ROI analysis” value turned out to be 0.058±0.02 % ID/g. Moreover, under “72 h”, the “tumor uptake from ROI analysis” value is recorded as 0.031±0.01 % ID/g. For the same compound, the “tumor uptake from ROI analysis” value (100 h) turned out to be 0.024±0.008 % ID/g. In addition, the maximum thyroid activity (between 4 and 28 h, no potassium iodide) is reported as < 0.4 % of the administered activity. Also, for the setting “by ~12 h postinjection”, the “tumor-to-blood activity concentration ratio” value is at least 10. For the same compound, the “time by which cleared from MDA-MB-468 tumors” value (post-administration) is listed as at most 150 h.

Take `Nc1ncnc2c1nc(Sc1cc3c(cc1I)OCO3)n2CCCNCCOCCOCCOCCNC(=O)CCCC[C@@H]1SC[C@@H]2NC(=O)N[C@@H]21` [PU-H71-biotin]: the “HSP90-streptavidin binding” value in the series with HSP90 [1] was “No”.

On to `CC(C)N(CCCn1c(Sc2cc3c(cc2I)OCO3)nc2c(N)ncnc21)C(=O)CCCC[C@@H]1SC[C@@H]2NC(=O)N[C@@H]21` [PU-H71-biotin2], for which, in the series on HSP90 [1], the “HSP90-streptavidin binding” value is on record as “No”.

As for `CC(C)N(CCCn1c(Sc2cc3c(cc2I)OCO3)nc2c(N)ncnc21)C(=O)CCOCCOCCOCCOCCNC(=O)CCCC[C@@H]1SC[C@@H]2NC(=O)N[C@@H]21` [PU-H71-biotin9], in the series on HSP90 [1], the “binding in live K562 cells” value is reported as “able to permeate the cell membrane” and the “HSP90-streptavidin binding” value is given as “Yes”.

On to `CC(C)NCCCn1c(Sc2cc3c(cc2[131I])OCO3)nc2c(N)ncnc21` [^131I-PU-H71], for which, in the series on HSP90 [3], the “available cellular binding sites bound per cell” value was ≤ 5.5×10^6 and the “fraction of total cellular HSP90 bound” value is listed as 26.6-33.5%.

As to `Nc1ncnc2c1nc(Sc1cc3c(cc1I)OCO3)n2CCCNC(=O)CCCC[C@@H]1SC[C@@H]2NC(=O)N[C@@H]21` [PU-H71-biotin3], the “HSP90-streptavidin binding” value with HSP90 [1] is recorded as “No”.

As for `Nc1ncnc2c1nc(Sc1cc3c(cc1I)OCO3)n2CCCNC(=O)CCOCCOCCOCCOCCNC(=O)CCCC[C@@H]1SC[C@@H]2NC(=O)N[C@@H]21` [PU-H71-biotin6], the “band at approximately 90 kDa in live K562 cells” value in the series on HSP90 [1] (0.5 μM) was “still shows a faint band”. For the same compound, in the series with HSP90 [1], the “binding in live K562 cells” value is on record as “able to permeate the cell membrane” and the “HSP90-streptavidin binding” value is recorded as “Yes”.

Take `CC(C)N(CCCn1c(Sc2cc3c(cc2I)OCO3)nc2c(N)ncnc21)C(=O)CCCCCNC(=O)CCCC[C@@H]1SC[C@@H]2NC(=O)N[C@@H]21` [PU-H71-blotin7]: the “HSP90-streptavidin binding” value in the series on HSP90 [1] was “No”.

Turning to `Nc1ncnc2c1nc(Sc1cc3c(cc1I)OCO3)n2CCCNC(=O)CCCCCNC(=O)CCCCCNC(=O)CCCC[C@@H]1SC[C@@H]2NC(=O)N[C@@H]21` [PU-H71-biotin5], in the series on HSP90 [1], the “binding in live K562 cells” value is listed as “able to permeate the cell membrane” and the “HSP90-streptavidin binding” value was “Yes”.

(Values after US9555137B2, “Uses of labeled HSP90 inhibitors” (Sloan-Kettering Institute for Cancer Research, priority 2011, dated 2017).)
